Data on 34 molecules can be found in US7629349B2, “Pyrazolo [3,4-d] pyrimidine derivatives and their use as purinergic receptor antagonists” (Vernalis Research Limited, priority 2001, dated 2009).

Counter-ions that a name gives are not always drawn. Like-named read-outs stand apart in the source and are kept apart here.

Data set [1] deals with human adenosine A2A receptor (Homo sapiens, UniProt P29274). In words: Binding affinities at hA2A receptors, displacement of [3H]-CGS 21680.
The next data set concerns Parkinsonian patients. The note with it: cited from earlier work.
The subject of a further data set is catalepsy. As to conditions: cited from earlier work.
[2] abbreviates: human adenosine A2A receptor, radioligand [3H]-CGS 21680.

Sequence of human adenosine A2A receptor (P29274 whole entry): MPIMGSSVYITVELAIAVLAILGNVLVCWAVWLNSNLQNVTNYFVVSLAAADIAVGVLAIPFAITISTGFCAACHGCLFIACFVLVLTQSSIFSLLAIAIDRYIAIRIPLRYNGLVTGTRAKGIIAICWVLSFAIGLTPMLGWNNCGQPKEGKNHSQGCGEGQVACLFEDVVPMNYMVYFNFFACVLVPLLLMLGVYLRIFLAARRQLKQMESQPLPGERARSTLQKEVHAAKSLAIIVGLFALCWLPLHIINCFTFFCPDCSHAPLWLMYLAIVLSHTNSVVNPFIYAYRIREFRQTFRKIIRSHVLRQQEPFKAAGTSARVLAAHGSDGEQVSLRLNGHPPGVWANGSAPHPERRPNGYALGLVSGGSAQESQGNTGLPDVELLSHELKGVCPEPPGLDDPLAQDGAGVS

Regarding `Nc1nc(-c2ccco2)c2cnn(CC(=O)Nc3ccccc3)c2n1` [Example 35, 6-amino-4-(2-furyl)-N-phenyl-1H-pyrazolo[3,4-d]pyrimidin-1-ylacetamide], the melting point – broadly, the temperature of the solid-liquid transition – fell in the range of 276.8 to 277.2 °C. In turn, `Nc1nc(-c2ccco2)c2cnn(CC(=O)NCCc3ccccc3)c2n1` [Example 44, 6-amino-4-(2-furyl)-N-(2-phenylethyl)-1H-pyrazolo[3,4-d]pyrimidin-1-ylacetamide] had a melting point of 231.1 to 231.2 °C.

Molecule `Nc1nc(-c2ccco2)c2cnn(CC(=O)Nc3ccccc3F)c2n1` [Example 45, 6-amino-N-(2-fluorophenyl)-4-(2-furyl)-1H-pyrazolo[3,4-d]pyrimidin-1-ylacetamide] gave a melting point of 276.2 to 278.5 °C. The same measure, in the same setting: the same measure for `COc1cccc(NC(=O)Cn2ncc3c(-c4ccco4)nc(N)nc32)c1` [Example 43, 6-amino-4-(2-furyl)-N-(3-methoxyphenyl)-1H-pyrazolo[3,4-d]pyrimidin-1-ylacetamide]: 267.4 to 271.5 °C. For the molecule `Nc1nc(-c2ccco2)c2cnn(CCCc3ccccc3)c2n1` [Example 31, 4-(2-furyl)-1-(3-phenylpropyl)-1H-pyrazolo[3,4-d]pyrimidine-6-amine], affinity in data set [1] was put at a Ki of 2 nM. `Nc1cccc(Cn2ncc3c(-c4nnc[nH]4)nc(N)nc32)c1` [Example 60, 1-(3-aminobenzyl)-4-(1,2,4-triazol-3-yl)-1H-pyrazolo[3,4-d]pyrimidine-6-amine] came in with a melting point of 193.3 to 193.4 °C.

For `CCCCCn1ncc2c(-c3ccco3)nc(N)nc21` (as salt: HCl) [Example 23, 4-(2-furyl)-1-n-pentyl-1H-pyrazole[3,4-d]pyrimidine-6-amine], the melting point is 218 °C. As for `COc1cccc(Cn2ncc3c(-c4ccco4)nc(N)nc32)c1` [Example 12, 4-(2-furyl)-1-(3-methoxybenzyl)-1H-pyrazolo[2,4-d]pyrimidine-6-amine], the affinity in data set [1] (setting [2]), expressed as Ki, was 2 nM. The same measure, in the same setting: the same measure for `Nc1nc(-c2ccco2)c2cnn(Cc3ccc(C(F)(F)F)cc3)c2n1` [Example 22, 4-(2-furyl)-1-(4-trifluoromethylbenzyl)-1H-pyrazolo[3,4-d]pyrimidine-6-amine]: 6 nM. Regarding `Cn1c(=O)c2[nH]cnc2n(C)c1=O` [theophylline, 1,3-dimethylxanthine], the “mean objective disability scores” value in the data set on Parkinsonian patients (15 Parkinsonian patients, up to 12 weeks, 150 mg/day oral) is reported as “significant improvements”. For the same molecule, in the data set with Parkinsonian patients (of 15 Parkinsonian patients, up to 12 weeks, 150 mg/day oral), the “patients reporting moderate or marked subjective improvement” value is 11. Further, in the data set on Parkinsonian patients (slow release oral theophylline preparation 150 mg/day, after one week), the serum theophylline levels was 4.44 mg/L. In the case of `Nc1nc(-c2ccco2)c2cnn(Cc3cccc([N+](=O)[O-])c3)c2n1` [Example 30, 4-(2-furyl)-1-(3-nitrobenzyl)-1H-pyrazolo[3,4-d]pyrimidine-6-amine], the affinity in data set [1] (setting [2]), expressed as Ki, was 4 nM. Molecule `Nc1nc(-c2nnc[nH]2)c2cnn(Cc3ccccc3F)c2n1` [Example 51, 1-(2-fluorobenzyl)-4-(1,2,4-triazol-3-yl)-1H-pyrazolo[3,4-d]pyrimidine-6-amine] registered a melting point of 287.9 °C. In data set [1], the Ki – broadly, a measure of affinity in units of concentration, obtained from inhibition or displacement – turned out to be 71 nM. Consider `Clc1nc(-c2ccco2)c2cnn(CCc3ccccc3)c2n1` [Example 1, 6-chloro-4-(2-furyl)-1-(2-phenylethyl)-1H-pyrazolo[3,4-d]pyrimidine], for which the melting point lay in the range of 85.1 to 85.6 °C. As for `Cc1ccc(Cn2ncc3c(-c4ccn[nH]4)nc(N)nc32)cc1` [Example 50, 1-(4-methylbenzyl)-4-(1H-pyrazol-3-yl)-1H-pyrazolo[3,4-d]pyrimidine-6-amine], the melting point came to 265.8 °C.

For `Nc1nc(-c2ccco2)c2cnn(CC(=O)NCc3ccco3)c2n1` [Example 37, 6-amino-4-(2-furyl)-N-(2-furylmetyl)-1H-pyrazolo[3,4-d]pyrimidin-1-ylacetamide], the melting point fell in the range of 247.9 to 249.4 °C. In the case of `Nc1nc(-c2ccco2)c2cnn(Cc3ccccc3F)c2n1` [Example 14, 1-(2-fluorobenzyl)-4-(2-furyl)-1H-pyrazolo[3,4-d]pyrimidine-6-amine], the inhibition constant Ki in data set [1] is 2 nM.

`CC(C)n1ncc2c(-c3ccco3)nc(N)nc21` (as salt: HCl) [Example 21, 4-(2-furyl)-1-(1-methylethyl)-1H-pyrazolo[3,4-d]pyrimidine-6-amine] registered a melting point of 191.4 to 191.5 °C. For `Nc1cccc(Cn2ncc3c(-c4nccs4)nc(N)nc32)c1` [Example 62, 1-(3-aminobenzyl)-4-(2-thiazolyl)-1H-pyrazolo[3,4-d]pyrimidine-6-amine], the melting point lay within 177.8 to 178.3 °C. `Nc1nc(-c2ccco2)c2cnn(Cc3c(F)cccc3F)c2n1` [Example 24, 1-(2,6-difluorobenzyl)-4-(2-furyl)-1H-pyrazolo[3,4-d]pyrimidine-6-amine] registered a Ki in data set [1] (setting [2]) of 2 nM. With `Nc1nc(-c2ccccn2)c2cnn(Cc3ccccc3F)c2n1` [Example 33, 1-(2-fluorobenzyl)-4-(2-pyridyl)-1H-pyrazolo[3,4-d]pyrimidine-6-amine], the Ki in data set [1] (setting [2]) was 12 nM. Molecule `CC(C)(C)OC(=O)n1ncc2c(-c3ccco3)nc(N)nc21` [Example 4, tert-butyl 6-amino-4-(2-furyl)-1H-pyrazolo[3,4-d]pyrimidine-1-carboxylate] had a melting point of 261.9 to 262.7 °C. `Nc1nc(-c2ccco2)c2cnn(CC(=O)Nc3ccccn3)c2n1` (as salt: HCl) [Example 29, 6-amino-4-(2-furyl)-N-(2-pyridyl)-1H-pyrazolo[3,4-d]pyrimidin-1-ylacetamide] returned a melting point of 249.8 to 249.9 °C.

`Nc1nc(-c2cccs2)c2cnn(Cc3ccccc3F)c2n1` [Example 28, 1-(2-fluorobenzyl)-4-(2-thienyl)-1H-pyrazolo[3,4-d]pyrimidine-6-amine] gave a Ki in data set [1] of 5 nM.

In turn, `Nc1nc(-c2nccs2)c2cnn(Cc3cccc([N+](=O)[O-])c3)c2n1` [Example 61, 1-(3-nitrobenzyl)-4-(2-thiazolyl)-1H-pyrazolo[3,4-d]pyrimidine-6-amine] registered a melting point of 193.3 to 193.4 °C. Consider `Nc1nc(-c2ccco2)c2cnn(Cc3ccccc3Cl)c2n1` [Example 11, 1-(2-chlorobenzyl)-4-(2-furyl)-1H-pyrazolo[3,4-d]pyrimidine-6-amine], for which the Ki in data set [1] (setting [2]) came to 9 nM.

`Nc1nc(-c2ccn[nH]2)c2cnn(Cc3cccc([N+](=O)[O-])c3)c2n1` [Example 59, 1-(3-nitrobenzyl)-4-(3-pyrazolyl)-1H-pyrazolo[3,4-d]pyrimidine-6-amine] had a melting point of 278.5 to 279 °C. With `Nc1nc(-c2ccn[nH]2)c2cnn(Cc3ccccc3F)c2n1` [Example 55, 1-(2-fluorobenzyl)-4-(3-pyrazolyl)-1H-pyrazolo[3,4-d]pyrimidine-6-amine], in data set [1] (setting [2]), the Ki is 16 nM. The molecule `Nc1cccc(Cn2ncc3c(-c4ccco4)nc(N)nc32)c1` [Example 32, 1-(3-aminobenzyl)-4-(2-furyl)-1H-pyrazolo[3,4-d]pyrimidine-6-amine] returned a Ki in data set [1] (setting [2]) of 4 nM.

In the case of `Cc1cccc(Cn2ncc3c(-c4ccco4)nc(N)nc32)c1` [Example 15, 4-(2-furyl)-1-(3-methylbenzyl)-1H-pyrazolo[3,4-d]pyrimidine-6-amine], the inhibitory constant (Ki) in data set [1] was 2 nM. For `COc1cccc(Cn2ncc3c(-c4ccn[nH]4)nc(N)nc32)c1` [Example 64, 1-(3-methoxybenzyl)-4-(1H-pyrazol-3-yl)-1H-pyrazolo[3,4-d]pyrimidine-6-amine], the melting point fell in the range of 171 to 172 °C. The molecule `CCOC(=O)Cn1ncc2c(-c3ccco3)nc(N)nc21` [Example 26, ethyl 6-amino-4-(2-furyl)-1H-pyrazolo[3,4-d]pyrimidine-1-ylacetate] yielded a melting point of 177 to 177.1 °C.

`Nc1nc(-c2ccco2)c2cnn(CC(=O)NCc3ccccc3)c2n1` [Example 34, 6-amino-N-benzyl-4-(2-furyl)-1H-pyrazolo[3,4-d]pyrimidin-1-ylacetamide]: the melting point lay in the range of 276.8 to 277.2 °C.

Molecule `Nc1nc(-c2ccco2)c2cnn(Cc3ccccc3N)c2n1` [Example 56, 1-(2-aminobenzyl)-4-(2-furyl)-1H-pyrazolo[3,4-d]pyrimidine-6-amine] showed a Ki in data set [1] (setting [2]) of 8 nM.

As to `CCCn1c(=O)c2c(nc(/C=C/c3ccc(OC)c(OC)c3)n2C)n(CCC)c1=O` [KF 17837, (E)-8-(3,4-dimethoxystyryl)-1,3-dipropyl-7-methylxanthine], in the data set on catalepsy (in vivo), the “anticataleptic effects of a subthreshold dose of L-DOPA plus benserazide” value is on record as “potentiated”; the “catalepsy induced by haloperidol and reserpine” value was “reduced”. In addition, the “cataleptic responses induced by intracerebroventricular CGS 21680” value in the data set on catalepsy (oral administration) is “significantly ameliorated”.
